Results from ChEMBL document CHEMBL1153173, “Oxygenated analogues of UK-396082 as inhibitors of activated thrombin activatable fibrinolysis inhibitor” (Bioorg Med Chem Lett, 2010).

Key:
[1] = target: T1, Carboxypeptidase B2 (Homo sapiens, UniProt Q96IY4); test: Inhibition of active form of human recombinant TAFI assessed as substrate turnover every 15 seconds for 30 mins
T1 sequence (Q96IY4 whole entry): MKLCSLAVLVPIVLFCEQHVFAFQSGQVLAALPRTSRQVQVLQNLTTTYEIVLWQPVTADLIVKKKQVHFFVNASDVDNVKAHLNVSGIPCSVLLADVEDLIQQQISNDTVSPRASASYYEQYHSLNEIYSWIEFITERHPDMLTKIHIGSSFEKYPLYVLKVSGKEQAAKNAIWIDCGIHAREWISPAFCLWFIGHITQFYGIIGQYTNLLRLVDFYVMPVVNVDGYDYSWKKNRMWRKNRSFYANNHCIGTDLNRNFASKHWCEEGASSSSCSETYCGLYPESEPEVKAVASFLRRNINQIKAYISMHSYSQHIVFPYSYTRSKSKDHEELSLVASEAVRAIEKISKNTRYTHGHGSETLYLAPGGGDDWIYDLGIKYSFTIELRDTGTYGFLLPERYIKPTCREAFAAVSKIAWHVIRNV

[2] = target: T2, Carboxypeptidase B (Homo sapiens, UniProt P15086); test: Inhibition of human pancreatic carboxypeptidase B
T2 sequence (P15086 whole entry): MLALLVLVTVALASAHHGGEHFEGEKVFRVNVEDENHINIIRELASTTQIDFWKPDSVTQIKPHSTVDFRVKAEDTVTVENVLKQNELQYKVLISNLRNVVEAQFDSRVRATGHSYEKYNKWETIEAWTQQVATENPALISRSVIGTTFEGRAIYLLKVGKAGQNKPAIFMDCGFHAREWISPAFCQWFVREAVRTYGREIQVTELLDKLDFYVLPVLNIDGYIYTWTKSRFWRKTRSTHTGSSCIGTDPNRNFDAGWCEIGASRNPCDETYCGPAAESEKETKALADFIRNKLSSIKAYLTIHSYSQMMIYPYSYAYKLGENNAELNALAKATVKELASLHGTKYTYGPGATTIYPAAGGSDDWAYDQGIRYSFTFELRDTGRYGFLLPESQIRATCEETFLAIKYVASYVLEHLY

[3] = Clearance in rat at 2 mg/kg, iv; type: ADME, organism-based; set-up: dose 2 mg/kg, route intravenous; conditions: in vivo
[4] = Volume of distribution in rat at 2 mg/kg, iv; type: ADME, organism-based; set-up: dose 2 mg/kg, route intravenous; conditions: in vivo
[5] = Half life in rat at 2 mg/kg, iv; type: ADME, organism-based; set-up: dose 2 mg/kg, route intravenous; conditions: in vivo
[6] = Half life in rat at 5 mg/kg, po; type: ADME, organism-based; set-up: dose 5 mg/kg, route oral; conditions: in vivo
[7] = system: Plasma; test: Plasma protein binding in rat; type: ADME, cell-free
[8] = Oral bioavailability in rat at 5 mg/kg; type: ADME, organism-based; conditions: in vivo
[9] = Clearance in human at 10 mg/kg, iv; type: ADME, organism-based; set-up: dose 10 mg/kg, route intravenous; conditions: in vivo
[10] = Volume of distribution in human at 10 mg/kg, iv; type: ADME, organism-based; set-up: dose 10 mg/kg, route intravenous; conditions: in vivo
[11] = Half life in human at 10 mg/kg, iv; type: ADME, organism-based; set-up: dose 10 mg/kg, route intravenous; conditions: in vivo

Structure (SMILES) | Ki [1] | Ki [2] | further results
CCCn1cnc(C[C@H](OCCN)C(=O)O)c1 | 6.7 nM | 238 nM | clearance [3]: 13.4 mL/min/kg; Vd [4]: 3.1 L/kg; half-life [5]: 2.7 h; half-life [6]: 2.1 h; PPB [7]: 0%; bioavailability [8]: 9.8%
C[C@H](CN)O[C@@H](Cc1cn(-c2ccccc2)cn1)C(=O)O | 7.5 nM | 240 nM | –
CCCn1cnc(C[C@H](NCCN)C(=O)O)c1 | 150 nM | 1160 nM | –
CCCCn1cnc(CC(OCCN)C(=O)O)c1 (racemic) | 15 nM | 360 nM | –
NCCO[C@@H](Cc1cn(-c2ccccc2)cn1)C(=O)O | 3.5 nM | 27 nM | –
CCCn1cnc(CC(OCCNC)C(=O)O)c1 (racemic) | 407 nM | > 10000 nM | –
CCCn1cnc(C[C@@H](OCCN)C(=O)O)c1 | > 10000 nM | > 10000 nM | –
NCCO[C@@H](Cc1cn(CCC2CCCCC2)cn1)C(=O)O | 8.2 nM | 27 nM | –
Cc1ccccc1-n1cnc(CC(OCCN)C(=O)O)c1 (racemic) | 65 nM | 2720 nM | –
C[C@H](CN)O[C@@H](Cc1cn(-c2ccccn2)cn1)C(=O)O | 5.8 nM | 265 nM | –
CC(C)(C)c1ccc(-n2cnc(C[C@H](OCCN)C(=O)O)c2)cc1 | 5.7 nM | 49 nM | –
CCCn1cnc(C[C@H](CCCN)C(=O)O)c1 [UK-396,082] | 16 nM | 206 nM | clearance [3]: 10.2 mL/min/kg; Vd [4]: 1.9 L/kg; half-life [5]: 2.1 h; half-life [6]: 2.4 h; PPB [7]: 0%; bioavailability [8]: 10.6%; clearance [9]: 1.5 mL/min/kg; Vd [10]: 0.5 L/kg; half-life [11]: 4 h
